Values after ≈ are worked out from the molar mass of the structure shown.
How the values were obtained:
Assay type in all cases: cell-based
Enterovirus 71 (EV71) [1] = assay: Inhibition of EV71-induced cytopathogenicity (CPE) in RD cells, MTT; conditions: concentration for 50% protection from virus-induced cytopathogenicity, RD cells, 100 TCID50 EV71, 48 h, MTT; for EC50: Enterovirus A, read-out: EC50 (µg/mL) RD
Protocol: (§1) The antiviral activities of gramine and its derivatives against EV71 based on inhibition of virus-induced cytopathogenicity effects (CPEs) in African green monkey kidney cells (Vero) and rhabdomyosarcoma cells (RD) were examined. The cytotoxic effects were also evaluated. The inhibitory activities expressed as half maximal effective concentration (EC50) values and selectivity indexes (SI) for the target compounds are presented in Table 1, and the dose-dependent antiviral effects are shown in Figure 1A.
(§2) The activity of compounds against EV71 was determined based on the inhibition of virus-induced cytopathogenicity effects (CPEs) in acutely infected cells. Vero and RD cells grown to 90% confluency in 96-well dishes were washed with phosphate buffered saline (PBS) and infected with 100 TCID50 of EV71 mixed with serial dilutions of tested compounds for 1.5 h at 37 °C. The inoculum was aspirated and cells were incubated with DMEM and test compounds at 37 °C, 5% CO2 for 48 h. The CPEs were observed microscopically and the viability of the cells was determined with a 3-(4,5-dimethylthiazol-2-yl)-2,5-diphenyltetrazolium bromide (MTT) assay. The concentrations required for the test compounds to achieve 50% protection from virus-induced cytopathogenicity (EC50) were determined. Adverse effects of these compounds on the host cells were also assessed by means of the MTT-method; by exposing uninfected cells to various concentrations of test compounds for 48 h at 37 °C, the viability of the cells was detected. The 50% cell cytotoxic concentrations (CC50) of compounds were calculated with the SPSS software (SPSS, Chicago, IL, USA). Selectivity indexes were calculated as the ratio of CC50: EC50.
(§3) Cell viability was assessed by an MTT assay, which functions based on the reduction of a MTT into formazan dye by active mitochondria. The cells were treated with 100 µL of MTT (1 mg/mL, Sigma, St. Louis, MO, USA) and incubated at 37 °C for 4 h. The reaction was blocked by DMSO and measured in a microplate reader (Bio-Tek Instruments, Winooski, VT, USA) at 492 nm. The untreated control was arbitrarily set as 100%.

[2] = Cytotoxicity on uninfected Vero cells, MTT; conditions: African green monkey
Protocol: as §1, §2, §3

[3] = Cytotoxicity on uninfected RD cells, MTT; conditions: human, concentration reducing cell viability by 50%
Protocol: Human RD cells and Vero cells were maintained in Dulbecco’s modified Eagle’s medium (Gibco-Invitrogen, Carlsbad, CA, USA) supplemented with 10% fetal bovine serum (FBS; Gibco), 100 U/mL of penicillin and streptomycin, and 2 mM L-glutamine. Enterovirus 71 (EV71) was kindly provided by Zhanqiu Yang (Institute of Medical Virology, School of Medicine, Wuhan University, China) and propagated in RD cell lines. The virus titer was determined by the standard method of median tissue culture infective dose (TCID50) on RD cells.
as §2, §3

Enterovirus 71 (EV71) [4] = assay: Inhibition of EV71-induced cytopathogenicity (CPE) in Vero cells, MTT; conditions: for EC50 (µg/mL) Vero / EC50: concentration for 50% protection from virus-induced cytopathogenicity, Vero cells, 100 TCID50 EV71, 48 h, MTT, mean ± SD of three experiments; for EC50: Enterovirus A, read-out: EC50 (µg/mL) Vero
Protocol: as §1
Figure 1 Gramine and its synthetic derivatives inhibited virus-induced CPE. (A) Vero cells were infected with 100 TCID50 of EV71 mixed with serial dilutions of tested compounds for 1.5 h at 37 °C; the inoculum was aspirated and cells were incubated with DMEM/tested compounds at 37 °C, 5% CO2 for 48 h pi. The viability of the cells was determined with an MTT assay; (B) Morphology image of Vero and RD cells treated with compounds 4a, 4i, 4r, and 4s for 48 h pi. (magnification, 20×).
as §2, §3

[5] = concentration reducing cell viability by 50%, uninfected Vero cells, 48 h, MTT, read-out: CC50 (µg/mL) Vero

| Compound | EC50 (µg/mL) RD (Enterovirus 71 (EV71) [1]) | CC50 at 48 h [2] | CC50 at 48 h [3] | EC50 (µg/mL) Vero (Enterovirus 71 (EV71) [4]) | anti-EV71 activity (Enterovirus 71 (EV71) [4]; inhibition of EV71-induced CPEs compared with virus control) | EC50 (Enterovirus 71 (EV71) [1]) | CC50 at 48 h [2, 5] | EC50 (Enterovirus 71 (EV71) [4]) |
| --- | --- | --- | --- | --- | --- | --- | --- | --- |
| CN(C)Cc1c[nH]c2ccccc12 [Gramine] | — (less than 50% inhibition) | 101 ± 5.6 µg/mL (≈ 582 µM) | 85 ± 16.3 µg/mL (≈ 488 µM) | — ^d (less than 50% inhibition) | not observed |  |  |  |
| Fc1ccc(C(c2c[nH]c3ccccc23)n2cccn2)cc1 (centres unmarked) [Compound 4t] |  |  | 12.6 ± 3.5 µg/mL (≈ 43.3 µM) |  |  | 2.6 ± 0.8 µg/mL (≈ 8.92 µM) | 10.5 ± 2.4 µg/mL (≈ 36 µM) | 1.9 ± 0.6 µg/mL (≈ 6.52 µM) |
| c1ccc(NC(c2ccccn2)c2c[nH]c3ccccc23)nc1 (centres unmarked) [Compound 4l] | — (less than 50% inhibition) |  | 65.2 ± 9.1 µg/mL (≈ 217 µM) | — (less than 50% inhibition) |  |  | 96.2 ± 15.5 µg/mL (≈ 320 µM) |  |
| Fc1ccccc1C(Nc1ccccn1)c1c[nH]c2ccccc12 (centres unmarked) [Compound 4d] |  |  | 28 ± 5.2 µg/mL (≈ 88.2 µM) |  |  | 5.8 ± 1.4 µg/mL (≈ 18.3 µM) | 37.8 ± 5.8 µg/mL (≈ 119 µM) | 9.2 ± 2.1 µg/mL (≈ 29 µM) |
| Clc1ccc(C(Nc2ccccn2)c2c[nH]c3ccccc23)cc1 (centres unmarked) [Compound 4c] |  |  | 24.6 ± 3.5 µg/mL (≈ 73.7 µM) |  |  | 6.7 ± 0.8 µg/mL (≈ 20.1 µM) | 22.4 ± 3.6 µg/mL (≈ 67.1 µM) | 5.6 ± 1.3 µg/mL (≈ 16.8 µM) |
| Cn1cc(C(Nc2ccccn2)c2ccccn2)c2ccccc21 (centres unmarked) [Compound 4m] | — (less than 50% inhibition) |  | > 200 µg/mL | — (less than 50% inhibition) |  |  | > 200 µg/mL |  |
| FC(F)(F)c1ccc(C(Nc2ccccn2)c2c[nH]c3ccccc23)cc1 (centres unmarked) [Compound 4j] |  |  | 17.8 ± 2.6 µg/mL (≈ 48.5 µM) |  |  | 8.3 ± 3.5 µg/mL (≈ 22.6 µM) | 15.8 ± 3.3 µg/mL (≈ 43 µM) | 8.7 ± 2.9 µg/mL (≈ 23.7 µM) |
| Fc1ccccc1C(Nc1nc2ccccc2s1)c1c[nH]c2ccccc12 (centres unmarked) [Compound 4q] |  |  | 14.5 ± 3.6 µg/mL (≈ 38.8 µM) |  |  | 2.7 ± 1.2 µg/mL (≈ 7.23 µM) | 10.8 ± 2.5 µg/mL (≈ 28.9 µM) | 1.8 ± 1.1 µg/mL (≈ 4.82 µM) |
| Fc1ccc(C(c2c[nH]c3ccccc23)n2cncn2)cc1 (centres unmarked) [Compound 4u] |  |  | 6.8 ± 2.5 µg/mL (≈ 23.3 µM) |  |  | 3.1 ± 1.3 µg/mL (≈ 10.6 µM) | 4.9 ± 0.6 µg/mL (≈ 16.8 µM) | 2.3 ± 0.3 µg/mL (≈ 7.87 µM) |
| Cn1cc(C(Nc2ccccn2)c2ccccc2Cl)c2ccccc21 (centres unmarked) [Compound 4f] | — (less than 50% inhibition) |  | 44 ± 5.1 µg/mL (≈ 126 µM) |  |  |  | 86.4 ± 7.4 µg/mL (≈ 248 µM) | 14.4 ± 3.2 µg/mL (≈ 41.4 µM) |
| Cn1cc(C(Nc2ccccn2)c2ccncc2)c2ccccc21 (centres unmarked) [Compound 4o] |  |  | 39.2 ± 11.6 µg/mL (≈ 125 µM) |  |  | 9.5 ± 1.7 µg/mL (≈ 30.2 µM) | 72.8 ± 18.8 µg/mL (≈ 232 µM) | 16.9 ± 1.5 µg/mL (≈ 53.8 µM) |
| Cn1cc(C(Nc2ccccn2)c2ccccc2F)c2ccccc21 (centres unmarked) [Compound 4h] |  |  | 52.2 ± 8.3 µg/mL (≈ 158 µM) |  |  | 11.2 ± 4.6 µg/mL (≈ 33.8 µM) | 89.3 ± 12.6 µg/mL (≈ 269 µM) | 10.5 ± 2.1 µg/mL (≈ 31.7 µM) |
| Clc1ccccc1C(Nc1ccccn1)c1c[nH]c2ccccc12 (centres unmarked) [Compound 4b] |  |  | 22.8 ± 1.7 µg/mL (≈ 68.3 µM) |  |  | 7.4 ± 1.1 µg/mL (≈ 22.2 µM) | 18.6 ± 1.4 µg/mL (≈ 55.7 µM) | 5.1 ± 2.7 µg/mL (≈ 15.3 µM) |
| Cn1cc(C(Nc2ccccn2)c2ccc(Cl)cc2)c2ccccc21 (centres unmarked) [Compound 4g] |  |  | 32 ± 1.8 µg/mL (≈ 92 µM) |  |  | 4.9 ± 1.2 µg/mL (≈ 14.1 µM) | 38.6 ± 5.7 µg/mL (≈ 111 µM) | 4.9 ± 0.7 µg/mL (≈ 14.1 µM) |
| Cn1cc(C(Nc2ccccn2)c2ccc(C(F)(F)F)cc2)c2ccccc21 (centres unmarked) [Compound 4k] |  |  | 27.6 ± 8.3 µg/mL (≈ 72.4 µM) |  |  | 9.8 ± 3.4 µg/mL (≈ 25.7 µM) | 18.5 ± 4.8 µg/mL (≈ 48.5 µM) | 13.2 ± 1.3 µg/mL (≈ 34.6 µM) |
| Clc1ccccc1C(Nc1nc2ccccc2s1)c1c[nH]c2ccccc12 (centres unmarked) [Compound 4p] |  |  | 11.7 ± 4.6 µg/mL (≈ 30 µM) |  |  | 3.2 ± 0.4 µg/mL (≈ 8.21 µM) | 6.6 ± 1.4 µg/mL (≈ 16.9 µM) | 2.1 ± 0.7 µg/mL (≈ 5.39 µM) |
| c1ccc(NC(c2ccncc2)c2c[nH]c3ccccc23)nc1 (centres unmarked) [Compound 4n] | — (less than 50% inhibition) |  | > 200 µg/mL | — (less than 50% inhibition) |  |  | 121 ± 20.5 µg/mL (≈ 402 µM) |  |
| Fc1ccc(C(Nc2ccccn2)c2c[nH]c3ccccc23)cc1 (centres unmarked) [Compound 4e] |  |  | 29.5 ± 3.3 µg/mL (≈ 93 µM) |  |  | 6.2 ± 2.8 µg/mL (≈ 19.5 µM) | 40.7 ± 2.5 µg/mL (≈ 128 µM) | 7.3 ± 2.6 µg/mL (≈ 23 µM) |
| NC(=O)c1ncn([C@@H]2O[C@H](CO)[C@@H](O)[C@H]2O)n1 [ribavirin, reference compound] |  | > 500 µg/mL | 436 µg/mL (≈ 1780 µM) |  |  | 32.1 µg/mL (≈ 131 µM) |  | 44.6 ± 13.5 µg/mL (≈ 183 µM) |
